Measured values as given in patent US10533000B2, “Metabotrophic glutamate receptor 5 modulators and methods of use thereof” (Sunovion Pharmaceuticals, Inc., priority 2011, dated 2020).

Each molecule was assayed against mGluR5 (Homo sapiens, UniProt P41594) (assay: mGluR5 positive allosteric modulator (PAM) functional assay).
Type: cell-based

Sequence of mGluR5 (P41594 21-1212): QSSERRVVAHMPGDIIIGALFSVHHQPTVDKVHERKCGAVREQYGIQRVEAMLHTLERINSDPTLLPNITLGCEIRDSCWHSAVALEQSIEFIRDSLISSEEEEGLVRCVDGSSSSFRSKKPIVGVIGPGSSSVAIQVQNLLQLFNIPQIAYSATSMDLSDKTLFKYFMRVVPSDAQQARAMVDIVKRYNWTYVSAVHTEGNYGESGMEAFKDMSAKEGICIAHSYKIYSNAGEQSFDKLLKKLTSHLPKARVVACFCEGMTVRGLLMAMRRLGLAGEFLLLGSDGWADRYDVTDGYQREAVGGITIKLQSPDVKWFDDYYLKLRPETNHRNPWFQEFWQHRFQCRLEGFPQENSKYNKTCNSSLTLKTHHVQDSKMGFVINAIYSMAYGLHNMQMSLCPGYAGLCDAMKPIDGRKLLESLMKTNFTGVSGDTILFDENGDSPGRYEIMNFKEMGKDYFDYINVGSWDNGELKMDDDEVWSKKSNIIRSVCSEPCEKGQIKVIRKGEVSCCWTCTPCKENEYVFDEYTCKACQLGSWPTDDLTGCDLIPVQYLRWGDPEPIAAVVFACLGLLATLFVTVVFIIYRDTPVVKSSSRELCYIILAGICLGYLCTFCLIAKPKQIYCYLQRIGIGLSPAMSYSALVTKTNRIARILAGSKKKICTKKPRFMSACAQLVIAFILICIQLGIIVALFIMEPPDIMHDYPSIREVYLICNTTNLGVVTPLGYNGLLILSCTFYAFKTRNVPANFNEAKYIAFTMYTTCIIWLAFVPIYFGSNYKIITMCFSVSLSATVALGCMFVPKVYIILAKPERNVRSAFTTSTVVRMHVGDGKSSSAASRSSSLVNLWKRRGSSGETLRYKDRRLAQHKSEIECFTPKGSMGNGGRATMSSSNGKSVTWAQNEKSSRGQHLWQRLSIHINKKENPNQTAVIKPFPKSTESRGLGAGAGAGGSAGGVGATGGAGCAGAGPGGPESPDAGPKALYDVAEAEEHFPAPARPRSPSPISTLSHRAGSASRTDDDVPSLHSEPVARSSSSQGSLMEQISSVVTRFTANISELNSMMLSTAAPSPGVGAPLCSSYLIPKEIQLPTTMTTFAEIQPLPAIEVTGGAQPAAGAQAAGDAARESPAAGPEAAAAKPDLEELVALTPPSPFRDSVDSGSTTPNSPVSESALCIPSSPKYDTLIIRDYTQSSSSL

Q: For CO[C@H]1CN[C@@H](c2nc(-c3ccc(C#Cc4cccc(F)c4)cn3)no2)C1 [Compound 133, 3-(5-((3-fluorophenyl)ethynyl)pyridin-2-yl)-5-((2R,4R)-4-methoxypyrrolidin-2-yl)-1,2,4-oxadiazole], which EC50 is on record?
A: 0.03 to 0.1 µM

Q: How did the EC50 turn out when CNC(C)c1nc(-c2ccc(C#Cc3ccncc3)cc2)no1 (stereo not drawn) [Compound 79, N-methyl-1-(3-(4-(pyridin-4-ylethynyl)phenyl)-1,2,4-oxadiazol-5-yl)ethanamine] was run?
A: 0.1 to 0.3 µM

Q: How did the EC50 turn out when Fc1cccc(C#Cc2ccc(-c3nnc(C4CCCC4)o3)cc2)c1 [Compound 1, 2-cyclopentyl-5-(4-((3-fluorophenyl)ethynyl)phenyl)-1,3,4-oxadiazole] was run?
A: 0.3 to 1 µM

Q: For CC(C)NC(C)c1nc(-c2ccc(C#Cc3ccccn3)cn2)no1 (stereo not drawn) [Compound 140, N-(1-(3-(5-(pyridin-2-ylethynyl)pyridin-2-yl)-1,2,4-oxadiazol-5-yl)ethyl)propan-2-amine], which EC50 is on record?
A: 0.1 to 0.3 µM

Q: CN1C[C@H](O)C[C@@H]1c1nc(-c2ccc(C#Cc3cccc(F)c3)cn2)no1 [Compound 132, (3R,5R)-5-(3-(5-((3-fluorophenyl)ethynyl)pyridin-2-yl)-1,2,4-oxadiazol-5-yl)-1-methylpyrrolidin-3-ol] was tested. Which EC50 did it give?
A: 0.1 to 0.3 µM

Q: CCN(C)c1nc(-c2ccc(C#Cc3cccc(F)c3)cc2)no1 [Compound 61, N-ethyl-3-(4-((3-fluorophenyl)ethynyl)phenyl)-N-methyl-1,2,4-oxadiazol-5-amine] was tested. Which EC50 did it give?
A: 0.3 to 1 µM

Q: How did the EC50 turn out when CCC(C)c1nnc(-c2ccc(C#Cc3cccc(F)c3)cc2)o1 (stereo not drawn) [Compound 2, 2-(sec-butyl)-5-(4-((3-fluorophenyl)ethynyl)phenyl)-1,3,4-oxadiazole] was run?
A: 0.1 to 0.3 µM

Q: How did the EC50 turn out when CC(c1nc(-c2ccc(C#Cc3ccccn3)cn2)no1)N(C)C (stereo not drawn) [Compound 143, N,N-dimethyl-1-(3-(5-(pyridin-2-ylethynyl)pyridin-2-yl)-1,2,4-oxadiazol-5-yl)ethanamine] was run?
A: 0.1 to 0.3 µM

Q: With CC[C@@H](C)c1nc(-c2ccc(C#Cc3cccc(F)c3)cc2)no1 (single isomer, unassigned) [Compound 31] as the molecule, how does the EC50 read?
A: 0.3 to 1 µM

Q: With CCC(NC1CC1)c1nc(-c2ccc(C#Cc3ccccn3)cn2)no1 (stereo not drawn) [Compound 149, N-(1-(3-(5-(pyridin-2-ylethynyl)pyridin-2-yl)-1,2,4-oxadiazol-5-yl)propyl)cyclopropanamine] as the molecule, how does the EC50 read?
A: 0.3 to 1 µM

Q: How did the EC50 turn out when CCC(C)c1nc(-c2ccc(C#Cc3ccncc3)cc2)no1 (stereo not drawn) [Compound 71, 5-(sec-butyl)-3-(4-(pyridin-4-ylethynyl)phenyl)-1,2,4-oxadiazole] was run?
A: 0.1 to 0.3 µM

Q: For CN(C)C(C)(C)c1nc(-c2ccc(C#Cc3cccc(F)c3)cn2)no1 [Compound 113, 2-(3-(5-((3-fluorophenyl)ethynyl)pyridin-2-yl)-1,2,4-oxadiazol-5-yl)-N,N-dimethylpropan-2-amine], which EC50 is on record?
A: ≤ 0.03 µM

Q: How did the EC50 turn out when CCC(NC)c1nc(-c2ccc(C#Cc3cccc(F)c3)cn2)no1 (stereo not drawn) [Compound 115, 1-(3-(5-((3-fluorophenyl)ethynyl)pyridin-2-yl)-1,2,4-oxadiazol-5-yl)-N-methylpropan-1-amine] was run?
A: 0.03 to 0.1 µM

Q: How did the EC50 turn out when C(#Cc1ccccn1)c1ccc(-c2noc(C34CCCN3CCC4)n2)nc1 [Compound 170, 5-(hexahydro-1H-pyrrolizin-7a-yl)-3-(5-(pyridin-2-ylethynyl)pyridin-2-yl)-1,2,4oxadiazole] was run?
A: 0.03 to 0.1 µM

Q: With Fc1cccc(C#Cc2ccc(-c3noc(C4COCCN4)n3)nc2)c1 (stereo not drawn) [Compound 98] as the molecule, how does the EC50 read?
A: 0.03 to 0.1 µM

Q: With CC[C@@H](C)c1nc(-c2ccc(C#Cc3ccncc3)cc2)no1 (single isomer, unassigned) [Compound 73] as the molecule, how does the EC50 read?
A: 0.03 to 0.1 µM

Q: For N#CCN1CCCC1c1nc(-c2ccc(C#Cc3cccc(F)c3)cn2)no1 (stereo not drawn) [Compound 125, 2-(2-(3-(5-((3-fluorophenyl)ethynyl)pyridin-2-yl)-1,2,4-oxadiazol-5-yl)pyrrolidin-1-yl)acetonitrile], which EC50 is on record?
A: 0.03 to 0.1 µM

Q: CN1CCC1c1nc(-c2ccc(C#Cc3ccccn3)cn2)no1 (stereo not drawn) [Compound 150, 5-(1-methylazetidin-2-yl)-3-(5-(pyridin-2-ylethynyl)pyridin-2-yl)-1,2,4-oxadiazole] was tested. Which EC50 did it give?
A: 0.3 to 1 µM

Q: Which EC50 does the source give for CCN1CCCC1c1nc(-c2ccc(C#Cc3cccc(F)c3)cc2)no1 (stereo not drawn) [Compound 48, 5-(1-ethylpyrrolidin-2-yl)-3-(4-((3-fluorophenyl)ethynyl)phenyl)-1,2,4-oxadiazole] here?
A: 0.1 to 0.3 µM

Q: For CCC(CC)c1nc(-c2ccc(C#Cc3ccccn3)nc2)no1 [Compound 87, 5-(pentan-3-yl)-3-(6-(pyridin-2-ylethynyl)pyridin-3-yl)-1,2,4-oxadiazole], which EC50 is on record?
A: ≤ 0.03 µM

Q: Which EC50 does the source give for CCC(OC)c1nc(-c2ccc(C#Cc3cccc(F)c3)cn2)no1 (stereo not drawn) [Compound 97, 3-(5-((3-fluorophenyl)ethynyl)pyridin-2-yl)-5-(1-methoxypropyl)-1,2,4-oxadiazole] here?
A: ≤ 0.03 µM

Q: With CC(c1nc(-c2ccc(C#Cc3cccc(F)c3)cn2)no1)N1CCCC1 (stereo not drawn) [Compound 108, 3-(5-((3-fluorophenyl)ethynyl)pyridin-2-yl)-5-(1-(pyrrolidin-1-yl)ethyl)-1,2,4-oxadiazole] as the molecule, how does the EC50 read?
A: ≤ 0.03 µM

Q: How did the EC50 turn out when COC(C)c1nc(-c2ccc(C#Cc3ccncc3)cc2)no1 (stereo not drawn) [Compound 74, 5-(1-methoxyethyl)-3-(4-(pyridin-4-ylethynyl)phenyl)-1,2,4-oxadiazole] was run?
A: ≤ 0.03 µM

Q: With CCOC(=O)NC(CC)c1nc(-c2ccc(C#Cc3ccccn3)cn2)no1 (stereo not drawn) [Compound 146, ethyl (1-(3-(5-(pyridin-2-ylethynyl)pyridin-2-yl)-1,2,4-oxadiazol-5-yl)propyl)carbamate] as the molecule, how does the EC50 read?
A: 0.1 to 0.3 µM

Q: With CCC(CC)c1nc(-c2ccc(C#Cc3ccncc3)cc2)no1 [Compound 75, 5-(pentan-3-yl)-3-(4-(pyridin-4-ylethynyl)phenyl)-1,2,4-oxadiazole] as the molecule, how does the EC50 read?
A: 0.03 to 0.1 µM

Q: Which EC50 does the source give for CCC(c1nc(-c2ccc(C#Cc3ccccn3)cn2)no1)N(C)C (stereo not drawn) [Compound 148, N,N-dimethyl-1-(3-(5-(pyridin-2-ylethynyl)pyridin-2-yl)-1,2,4-oxadiazol-5-yl)propan-1-amine] here?
A: 0.03 to 0.1 µM

Q: CCC(C)c1nc(-c2ccc(C#Cc3ccccn3)cn2)no1 (stereo not drawn) [Compound 134, 5-(sec-butyl)-3-(5-(pyridin-2-ylethynyl)pyridin-2-yl)-1,2,4-oxadiazole] was tested. Which EC50 did it give?
A: 0.03 to 0.1 µM

Q: With CN(C)C1(c2nc(-c3ccc(C#Cc4cccc(F)c4)cn3)no2)CC1 [Compound 118, 1-(3-(5-((3-fluorophenyl)ethynyl)pyridin-2-yl)-1,2,4-oxadiazol-5-yl)-N,N-dimethylcyclopropanamine] as the molecule, how does the EC50 read?
A: ≤ 0.03 µM

Q: CC[C@H](C)c1nc(-c2ccc(C#Cc3cccc(F)c3)cc2)no1 (single isomer, unassigned) [Compound 30] was tested. Which EC50 did it give?
A: 0.3 to 1 µM

Q: With O[C@H]1CN[C@H](c2nc(-c3ccc(C#Cc4cccc(F)c4)cn3)no2)C1 [Compound 129, (3R,5S)-5-(3-(5-((3-fluorophenyl)ethynyl)pyridin-2-yl)-1,2,4-oxadiazol-5-yl)pyrrolidin-3-ol] as the molecule, how does the EC50 read?
A: 0.3 to 1 µM

Q: With CCC(CC)c1nc(-c2ccc(C#Cc3ccncc3)cn2)no1 [Compound 160, 5-(pentan-3-yl)-3-(5-(pyridin-4-ylethynyl)pyridin-2-yl)-1,2,4-oxadiazole] as the molecule, how does the EC50 read?
A: 0.03 to 0.1 µM

Q: With CCC(CC)c1nnc(-c2ccc(C#Cc3cccc(F)c3)cc2)o1 [Compound 4, 2-(4-((3-fluorophenyl)ethynyl)phenyl)-5-(pentan-3-yl)-1,3,4-oxadiazole] as the molecule, how does the EC50 read?
A: 0.03 to 0.1 µM

Q: Which EC50 does the source give for COC(C)c1nc(-c2ccc(C#Cc3ccncc3)nc2)no1 (stereo not drawn) [Compound 92, 5-(1-methoxyethyl)-3-(6-(pyridin-4-ylethynyl)pyridin-3-yl)-1,2,4-oxadiazole] here?
A: 0.1 to 0.3 µM

Q: CCC(CC)c1nnc(-c2ccc(C#Cc3ccncc3)cc2)o1 [Compound 3, 2-(pentan-3-yl)-5-(4-(pyridin-4-ylethynyl)phenyl)-1,3,4-oxadiazole] was tested. Which EC50 did it give?
A: 0.03 to 0.1 µM

Q: How did the EC50 turn out when CN1CCCC1c1nc(-c2ccc(C#Cc3cccc(F)c3)cc2)no1 (stereo not drawn) [Compound 47, 3-(4-((3-fluorophenyl)ethynyl)phenyl)-5-(1-methylpyrrolidin-2-yl)-1,2,4-oxadiazole] was run?
A: 0.1 to 0.3 µM

Q: Fc1cccc(C#Cc2ccc(-c3noc(C4CCCC4)n3)cn2)c1 [Compound 83, 5-cyclopentyl-3-(6-((3-fluorophenyl)ethynyl)pyridin-3-yl)-1,2,4-oxadiazole] was tested. Which EC50 did it give?
A: 0.1 to 0.3 µM

Q: With CCC(OC)c1nc(-c2ccc(C#Cc3ccncc3)cn2)no1 (stereo not drawn) [Compound 161, 5-(1-methoxypropyl)-3-(5-(pyridin-4-ylethynyl)pyridin-2-yl)-1,2,4-oxadiazole] as the molecule, how does the EC50 read?
A: 0.03 to 0.1 µM

Q: With CCC(OC)c1nc(-c2ccc(C#Cc3ccccn3)cn2)no1 (stereo not drawn) [Compound 138, 5-(1-methoxypropyl)-3-(5-(pyridin-2-ylethynyl)pyridin-2-yl)-1,2,4-oxadiazole] as the molecule, how does the EC50 read?
A: 0.1 to 0.3 µM

Q: CC(c1nnc(-c2ccc(C#Cc3ccccn3)cn2)n1C)N1CCCC1 (stereo not drawn) [Compound 10, 2-(4-methyl-5-(1-(pyrrolidin-1-yl)ethyl)-4H-1,2,4-triazol-3-yl)-5-(pyridin-2-ylethynyl)pyridine] was tested. Which EC50 did it give?
A: 0.1 to 0.3 µM

Q: For CCC(c1nc(-c2ccc(C#Cc3cccc(F)c3)cn2)no1)N(C)C (stereo not drawn) [Compound 116, 1-(3-(5-((3-fluorophenyl)ethynyl)pyridin-2-yl)-1,2,4-oxadiazol-5-yl)-N,N-dimethylpropan-1-amine], which EC50 is on record?
A: ≤ 0.03 µM

Q: Which EC50 does the source give for COC(C)c1nc(-c2ccc(C#Cc3cccc(F)c3)nc2)no1 (stereo not drawn) [Compound 84, 3-(6-((3-fluorophenyl)ethynyl)pyridin-3-yl)-5-(1-methoxyethyl)-1,2,4-oxadiazole] here?
A: 0.03 to 0.1 µM

Q: Which EC50 does the source give for CC(C)(C)c1noc(-c2ccc(C#Cc3cccc(F)c3)cc2)n1 [Compound 17, 3-(tert-butyl)-5-(4-((3-fluorophenyl)ethynyl)phenyl)-1,2,4-oxadiazole] here?
A: 0.3 to 1 µM

Q: With CCC(C)c1nc(-c2ccc(C#Cc3ccncc3)nc2)no1 (stereo not drawn) [Compound 90, 5-(sec-butyl)-3-(6-(pyridin-4-ylethynyl)pyridin-3-yl)-1,2,4-oxadiazole] as the molecule, how does the EC50 read?
A: ≤ 0.03 µM

Q: How did the EC50 turn out when CC(C)(C)OC(=O)N1CCC1c1nc(-c2ccc(C#Cc3cccc(F)c3)cn2)no1 (stereo not drawn) [Compound 99, tert-butyl 2-(3-(5-((3-fluorophenyl)ethynyl)pyridin-2-yl)-1,2,4-oxadiazol-5-yl)azetidine-1-carboxylate] was run?
A: 0.3 to 1 µM

Q: How did the EC50 turn out when CCC(C)c1nc(-c2ccc(C#Cc3cccnc3)cc2)no1 (stereo not drawn) [Compound 81, 5-(sec-butyl)-3-(4-(pyridin-3-ylethynyl)phenyl)-1,2,4-oxadiazole] was run?
A: 0.3 to 1 µM
